Laboratory results from article PMC5051719, “Fourth-Generation Progestins Inhibit 3β-Hydroxysteroid Dehydrogenase Type 2 and Modulate the Biosynthesis of Endogenous Steroids” (PLoS ONE, 2016).
Read-outs that look alike come from different tables or passages of the source.

What was measured:
Assay type in all cases: cell-based
[1] = target: T1, 3β-hydroxysteroid dehydrogenase type 2 (3βHSD2) (Homo sapiens, UniProt P26439); test: pregnenolone to progesterone conversion kinetics in transfected COS-1 cells, UPLC-MS/MS
T1 construct: gene HSD3B2
T1 sequence (P26439 1-372): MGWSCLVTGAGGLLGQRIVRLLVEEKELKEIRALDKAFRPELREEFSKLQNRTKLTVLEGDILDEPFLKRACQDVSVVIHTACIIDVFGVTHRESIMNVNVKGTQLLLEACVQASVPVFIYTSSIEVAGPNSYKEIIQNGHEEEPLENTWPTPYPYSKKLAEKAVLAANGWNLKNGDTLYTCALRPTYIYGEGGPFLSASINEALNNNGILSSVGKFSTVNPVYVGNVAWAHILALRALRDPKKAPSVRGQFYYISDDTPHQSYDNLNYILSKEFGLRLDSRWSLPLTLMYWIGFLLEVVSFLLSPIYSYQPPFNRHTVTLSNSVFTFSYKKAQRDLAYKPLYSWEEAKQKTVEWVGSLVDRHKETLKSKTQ

[2] = target: T2, cytochrome P450 17α-hydroxylase/17,20 lyase (CYP17A1) (Homo sapiens, UniProt P05093); test: progesterone conversion in transfected COS-1 cells with […] inhibitor, UPLC-MS/MS
T2 construct: pIRES-hCYP17A1-V5-X-hCYPB5-6HIS expressed in COS-1 cells
T2 sequence (P05093 whole entry): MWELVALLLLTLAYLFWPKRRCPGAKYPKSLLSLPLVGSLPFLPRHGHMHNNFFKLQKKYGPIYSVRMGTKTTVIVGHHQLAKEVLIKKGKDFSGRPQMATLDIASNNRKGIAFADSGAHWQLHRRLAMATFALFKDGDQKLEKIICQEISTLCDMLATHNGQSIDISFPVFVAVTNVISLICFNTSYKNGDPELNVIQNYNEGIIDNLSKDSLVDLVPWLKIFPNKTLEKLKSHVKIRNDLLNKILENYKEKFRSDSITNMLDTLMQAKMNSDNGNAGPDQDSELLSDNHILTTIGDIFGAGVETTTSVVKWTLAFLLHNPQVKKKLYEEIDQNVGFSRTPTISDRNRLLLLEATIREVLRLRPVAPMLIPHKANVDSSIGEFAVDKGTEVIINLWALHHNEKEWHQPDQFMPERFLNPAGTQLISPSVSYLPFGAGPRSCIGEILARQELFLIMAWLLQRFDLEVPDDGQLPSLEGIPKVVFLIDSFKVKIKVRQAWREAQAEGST
T2 sequence (P00167 2-134, further chain): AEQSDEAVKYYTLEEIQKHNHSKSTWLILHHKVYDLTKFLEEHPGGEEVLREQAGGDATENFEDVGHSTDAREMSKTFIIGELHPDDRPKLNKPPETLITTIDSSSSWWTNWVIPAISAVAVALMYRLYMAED

[3] = target: T1, 3β-hydroxysteroid dehydrogenase type 2 (3βHSD2); test: Michaelis-Menten kinetics of conversion to progesterone in transfected COS-1 cells (Km), UPLC-MS/MS

Row | Ki ([1]; read-out: Ki) | SMILES | other results
1 | – | C[C@]12CC[C@H]3[C@@H](CC[C@@]45O[C@@H]4C(O)=C(C#N)C[C@]35C)[C@@H]1CC[C@@H]2O [trilostane, reference compound] | Ki [1]: 31.3 ± 5.5 nM
2 | 9.5 ± 0.96 nM | C=C1C[C@H]2[C@@H]3CCC4=CC(=O)CCC4[C@H]3CC[C@]2(C)C1(OC(C)=O)C(C)=O (stereo partly drawn) [NES, nestorone] | –
3 | 29 ± 7.1 nM | CC(=O)O[C@]1(C(C)=O)CC[C@H]2[C@@H]3C=C(C)C4=CC(=O)CC[C@@H]4[C@H]3CC[C@@]21C [NoMAC, nomegestrol acetate] | –
4 | – | CC(=O)[C@H]1CC[C@H]2[C@@H]3CC=C4C[C@@H](O)CC[C@]4(C)[C@H]3CC[C@]12C [Preg, pregnenolone] | Km [3]: 0.85 ± 0.05 µM

Row | SMILES | Ki ([1]; read-out: Ki) | other results
5 | C[C@]12CCC(=O)C=C1[C@@H]1C[C@@H]1[C@H]1[C@@H]3[C@@H]4C[C@@H]4[C@@]4(CCC(=O)O4)[C@@]3(C)CC[C@@H]12 [DRSP, drospirenone] | 232 ± 38 nM | inhibition at 1 µM [2]: 55.2 ± 16.5%
